Common to all, as to assay type: functional, cell-based
One experiment concerns K562. Nature of the experiment: Antiproliferative activity against human K562 cells after 48 hrs by MTT assay. The note with it: K562, 48 h. On the technique in general: Formazan colour is commonly taken as a measure of viable cells.
Another experiment deals with HepG2. The experiment is described as follows: Antiproliferative activity against human HepG2 cells after 48 hrs by MTT assay. Conditions: HepG2, 48 h.
The test system of the next experiment is HCT-116. The experiment is described as follows: Antiproliferative activity against human HCT116 cells after 48 hrs by MTT assay. Conditions: HCT-116, 48 h.
The test system of a further experiment is SMMC-7721. Nature of the experiment: Antiproliferative activity against human SMMC7721 cells after 48 hrs by MTT assay. The note with it: SMMC-7721, 48 h.

On to `O=C1c2cccc3cccc(c23)C(=O)N1CCCNCCCCNCCCNC1CCCCC1`, for which the IC50 – broadly, the concentration that gives 50% inhibition – with K562 amounted to 17.2 µM; with HepG2, 25.4 µM; with HCT-116, 18.3 µM; in the experiment on SMMC-7721 it was 29.9 µM.

As to `CCCNCCCNCCCCNCCCN1C(=O)c2cccc3cccc(c23)C1=O`, the half-maximal inhibitory concentration (IC50) with K562 was 7.71 µM; with HepG2, 7.66 µM; with HCT-116 it was 5.2 µM; in the experiment with SMMC-7721 it was 6.6 µM.

`O=C1c2cccc3cccc(c23)C(=O)N1CCCCNCCCCNCCCCNC1CC1`: the concentration for half-maximal inhibition (IC50) in the experiment on K562 turned out to be 8.55 µM; with HepG2, 9.68 µM; in the experiment on HCT-116 it was 15.1 µM; with SMMC-7721 it was 12 µM.

On to `CCCNCCCCNCCCCNCCCCN1C(=O)c2cccc3cccc(c23)C1=O`, for which the IC50 with K562 came out at 32.4 µM; in the experiment on HepG2, 75.3 µM; in the experiment with HCT-116 it was 20.4 µM; in the experiment on SMMC-7721 it was 18.8 µM.

For `O=C1c2cccc3cccc(c23)C(=O)N1CCCCNCCCCNCCCCNC1CCCCC1`, the IC50 with K562 is 30.7 µM; in the experiment on HepG2, 37 µM; in the experiment with HCT-116 it was 14.2 µM; in the experiment with SMMC-7721, 14.3 µM.

`CCCNCCCNCCCNCCCN1C(=O)c2cccc3cccc(c23)C1=O`: the half-maximal inhibitory concentration (IC50) was determined as 10.2 µM in the experiment on K562, 9.98 µM in the experiment with HepG2, 7.96 µM in the experiment on HCT-116 and 11.2 µM in the experiment on SMMC-7721.

The record behind these values is ChEMBL document CHEMBL4138170, “Synthesis and biological evaluation of novel alkylated polyamine analogues as potential anticancer agents” (Eur J Med Chem, 2018).
